The source of these data is patent publication US20250295678A1, “ULTRA LOW DOSAGE ZOLEDRONIC ACID FOR TREATMENT OF RETINAL DISEASE” (The Regents of the University of California, priority 2022, published 2025).

“Also recorded” adds a separate entry of the source.

Assay [1] relates to polarized primary RPE cultures. Description: Complement-mediated mitochondrial fragmentation in polarized primary RPE monolayers (A2E + NHS, MitoTracker live imaging). In kind it is cell-based, porcine. Here is the method: Highly differentiated polarized primary RPE cultures were established from freshly harvested porcine eyes as described (Toops et al., 2014). To induce complement-mediate mitochondrial injury, RPE monolayers were treated with the lipofuscin bisretinoid A2E, which compromises mechanisms that protect the RPE from complement activation (Tan et al., 2016). RPE cells were exposed to active complement components (10% normal human serum, NHS, for 10 min at 37° C.) to induce complement activation on the RPE cell surface. […] After NHS exposure, cells were treated with 1 μM zoledronic acid for 3 h. RPE mitochondria were labeled with MitoTracker Deep Red and cells were imaged live on a Nikon spinning disc confocal microscopy as we have described (Tan et al., 2016; La Cunza et al., 2021). Mitochondrial surfaces were reconstructed from 4-dimensional images using Imaris (Bitplane).
Highly differentiated polarized primary RPE cultures were established from freshly harvested porcine eyes as described (Toops et al., 2014). To induce complement-mediate mitochondrial injury, RPE monolayers were treated with the lipofuscin bisretinoid A2E, which compromises mechanisms that protect the RPE from complement activation (Tan et al., 2016). RPE cells were exposed to active complement components (10% normal human serum, NHS, for 10 min at 37° C.) to induce complement activation on the RPE cell surface. […]

Another assay deals with primary RPE cultures. Description: Ceramide in primary RPE cultures treated with adiporon. It counts as cell-based, porcine. As to conditions: 0.01-1 μM, 3 h.
Assay [2] deals with T1, acid sphingomyelinase (ASM) (Homo sapiens, UniProt P17405).
T1 sequence (P17405 47-631): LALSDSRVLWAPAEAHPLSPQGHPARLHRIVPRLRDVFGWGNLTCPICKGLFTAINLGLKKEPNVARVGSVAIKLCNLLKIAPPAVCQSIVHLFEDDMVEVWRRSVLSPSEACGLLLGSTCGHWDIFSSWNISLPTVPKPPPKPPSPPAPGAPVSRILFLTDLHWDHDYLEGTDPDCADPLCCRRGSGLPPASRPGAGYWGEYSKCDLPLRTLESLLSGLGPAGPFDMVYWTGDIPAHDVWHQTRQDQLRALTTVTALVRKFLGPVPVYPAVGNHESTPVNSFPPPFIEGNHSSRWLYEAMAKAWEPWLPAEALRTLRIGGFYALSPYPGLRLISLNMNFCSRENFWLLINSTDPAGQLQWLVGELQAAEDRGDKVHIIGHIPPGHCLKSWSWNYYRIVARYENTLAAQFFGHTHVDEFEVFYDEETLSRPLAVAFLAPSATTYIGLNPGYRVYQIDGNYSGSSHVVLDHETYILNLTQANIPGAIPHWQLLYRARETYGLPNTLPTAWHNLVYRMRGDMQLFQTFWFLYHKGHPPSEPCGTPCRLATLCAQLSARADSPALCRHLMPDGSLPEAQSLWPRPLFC
Particulars: functional ASM inhibitor, prior publication; cited from earlier work.

On to `O=C(COc1ccc(C(=O)c2ccccc2)cc1)NC1CCN(Cc2ccccc2)CC1` [adiporon], for which, in assay [1] (1 μM for 3 h after NHS exposure (FIG. 5, FIG. 9)), the “complement-mediated mitochondrial fragmentation in the RPE in vitro” value is given as “prevented complement-mediated mitochondrial fragmentation”. The “complement-induced mitochondrial injury in primary RPE cultures” value in assay [1] (0.01-1 μM, 3 h (0.01 μM data not shown)) is on record as “preventing complement-induced mitochondrial injury”. In addition, the “ceramide in primary RPE cultures” value in the assay on primary RPE cultures is listed as “effective in decreasing ceramide”.
Turning to `CNCCCN1c2ccccc2CCc2ccccc21` [desipramine], in assay [2], the “ceramide accumulation (prior work)” value is listed as “decreases ceramide alone; also recorded: can effectively inhibit ceramide accumulation”.
